Assays:
Type in all cases: biochemical
CAMK2D (CaMKII delta) = molecular target: T1, CAMK2D (CaMKII delta) (Homo sapiens, UniProt Q13557); assay: Z'-LYTE kinase selectivity assay CAMK2D
T1 construct: purchased Life Technologies PV 3373
From the text: (§1) In order to compare the kinase selectivity of compounds (I) according to the invention with known prior art compounds the commercially provided SelectScreen® Kinase Profiling Service (Z′-LYTE®) was used (Life Technologies GmbH, Darmstadt, Germany) to investigate the ability of the compounds to inhibit a number of different, representatively selected human kinases. Further details regarding this service are available on the Life Technologies website at
(§2) The Z′-LYTE® biochemical assay employs a fluorescence-based, coupled-enzyme format and is based on the differential sensitivity of phosphorylated and non-phosphorylated peptides to proteolytic cleavage. The peptide substrate is labeled with two fluorophores—one at each end—that make up a FRET pair.
(§3) In the primary reaction, the kinase transfers the gamma-phosphate of ATP to a single tyrosine, serine or threonine residue in a synthetic FRET-peptide. In the secondary reaction, a site-specific protease recognizes and cleaves non-phosphorylated FRET-peptides. Phosphorylation of FRET-peptides suppresses cleavage by the Development Reagent. Cleavage disrupts FRET between the donor (i.e., coumarin) and acceptor (i.e., fluorescein) fluorophores on the FRET-peptide, whereas uncleaved, phosphorylated FRET-peptides maintain FRET. A ratiometric method, which calculates the ratio (the Emission Ratio) of donor emission to acceptor emission after excitation of the donor fluorophore at 400 nm, is used to quantitate reaction progress, as shown in the equation below.
(§4) The Test Compounds are screened at 1 μM.
The 2×CAMK2D (CaMKII delta) (# PV 3373)/Ser/Thr 04 (Z′-LYTE® Kinase Assay Kit—Ser/Thr 4 Peptide, # PV 3177) mixture is prepared in 50 mM HEPES pH 7.5, 0.01% BRIJ-35, 10 mM MgCl2, 1 mM EGTA, 4 mM CaCl2), 800 U/mL Calmodulin, 0.02% NaN3. The final 10 μL Kinase Reaction consists of 0.08-0.74 ng CAMK2D (CaMKII delta) and 2 μM Ser/Thr 04 in 50 mM HEPES pH 7.5, 0.01% BRIJ-35, 10 mM MgCl2, 1 mM EGTA, 2 mM CaCl2), 400 U/mL Calmodulin, 0.01% NaN3. After the 1 hour Kinase Reaction incubation, 5 μL of a 1:1024 dilution of Development Reagent A is added.

TBK1 = molecular target: T2, TBK1 (Homo sapiens, UniProt Q9UHD2); assay: Z'-LYTE kinase selectivity assay TBK1
T2 construct: purchased Life Technologies PV 3504
T2 sequence (Q9UHD2 1-729): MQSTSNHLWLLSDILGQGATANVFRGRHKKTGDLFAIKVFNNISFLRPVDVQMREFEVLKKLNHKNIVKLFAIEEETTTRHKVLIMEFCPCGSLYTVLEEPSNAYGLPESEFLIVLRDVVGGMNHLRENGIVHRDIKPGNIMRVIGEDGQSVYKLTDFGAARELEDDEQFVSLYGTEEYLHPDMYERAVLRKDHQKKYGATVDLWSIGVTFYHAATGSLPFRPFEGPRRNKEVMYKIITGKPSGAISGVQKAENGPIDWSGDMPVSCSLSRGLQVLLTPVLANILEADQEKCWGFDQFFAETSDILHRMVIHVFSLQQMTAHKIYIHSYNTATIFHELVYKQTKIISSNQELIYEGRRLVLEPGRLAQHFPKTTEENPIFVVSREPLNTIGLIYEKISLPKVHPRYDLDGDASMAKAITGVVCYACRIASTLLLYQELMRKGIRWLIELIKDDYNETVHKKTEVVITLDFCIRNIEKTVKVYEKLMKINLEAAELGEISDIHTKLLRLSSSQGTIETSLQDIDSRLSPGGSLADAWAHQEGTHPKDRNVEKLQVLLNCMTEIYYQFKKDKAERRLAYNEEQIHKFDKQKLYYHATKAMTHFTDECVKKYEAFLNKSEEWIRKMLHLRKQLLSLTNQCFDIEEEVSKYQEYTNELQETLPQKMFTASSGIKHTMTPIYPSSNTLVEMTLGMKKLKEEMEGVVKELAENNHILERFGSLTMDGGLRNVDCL
From the text: as §1, §2, §3, §4
The 2×TBK1 (# PV 3504)/Ser/Thr 05 (Z′-LYTE® Kinase Assay Kit—Ser/Thr 5 Peptide, # PV 3178) mixture is prepared in 50 mM HEPES pH 7.5, 0.01% BRIJ-35, 10 mM MgCl2, 1 mM EGTA. The final 10 μL Kinase Reaction consists of 0.7-9.72 ng TBK1 and 2 μM Ser/Thr 05 in 50 mM HEPES pH 7.5, 0.01% BRIJ-35, 10 mM MgCl2, 1 mM EGTA. After the 1 hour Kinase Reaction incubation, 5 μL of a 1:64 dilution of Development Reagent B is added.

STK6 (AURKA (Aurora A)) = molecular target: T3, STK6 (AURKA (Aurora A)) (Homo sapiens, UniProt O14965); assay: Z'-LYTE kinase selectivity assay STK6; details: read-out: STK6 (Aur A) % inhibition
T3 construct: purchased Life Technologies PV 3612
T3 sequence (O14965 1-403): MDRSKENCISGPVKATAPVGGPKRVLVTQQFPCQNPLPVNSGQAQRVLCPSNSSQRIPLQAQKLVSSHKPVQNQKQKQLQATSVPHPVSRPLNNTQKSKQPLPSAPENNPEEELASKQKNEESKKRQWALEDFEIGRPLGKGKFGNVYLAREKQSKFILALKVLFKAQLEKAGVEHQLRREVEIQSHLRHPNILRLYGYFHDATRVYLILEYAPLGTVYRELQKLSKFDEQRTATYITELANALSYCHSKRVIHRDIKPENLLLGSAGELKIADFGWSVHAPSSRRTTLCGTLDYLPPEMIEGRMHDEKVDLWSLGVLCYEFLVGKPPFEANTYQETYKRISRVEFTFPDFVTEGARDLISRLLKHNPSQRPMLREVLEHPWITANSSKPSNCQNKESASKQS
From the text: as §1, §2, §3, §4
The 2×AURKA (Aurora A) (# PV 3612)/Ser/Thr 01 (Z′-LYTE® Kinase Assay Kit—Ser/Thr 1 Peptide, # PV 3174) mixture is prepared in 50 mM HEPES pH 7.5, 0.01% BRIJ-35, 10 mM MgCl2, 1 mM EGTA. The final 10 μL Kinase Reaction consists of 0.91-12.2 ng AURKA (Aurora A) and 2 μM Ser/Thr 01 in 50 mM HEPES pH 7.5, 0.01% BRIJ-35, 10 mM MgCl2, 1 mM EGTA. After the 1 hour Kinase Reaction incubation, 5 μL of a 1:4096 dilution of Development Reagent A is added.

Row | Structure (SMILES) | inhibition at 1 µM (CAMK2D (CaMKII delta)) [%] | inhibition at 1 µM (TBK1) [%] | inhibition at 1 µM (STK6 (AURKA (Aurora A))) [%]
1 | C[C@@H]1Cc2nn(C)c(-c3ccccc3)c2-c2nc(Nc3ccn(CCN4CCN(C)CC4)n3)ncc21 [Compound I-1] | 53 | 38 | -15
2 | C[C@@H]1Cc2nn(C)c(-c3ccccc3)c2-c2nc(Nc3ccn(CCN4CCOCC4)n3)ncc21 [Compound I-2] | 47 | 48 | 12
3 | C[C@@H]1Cc2nn(C)c(-c3ccccc3)c2-c2nc(Nc3ccn(CCN4CCN(CC(C)(C)O)CC4)n3)ncc21 [Compound I-3] | 58 | 51 | 14
4 | CC(O)CN1CCN(CCn2ccc(Nc3ncc4c(n3)-c3c(nn(C)c3-c3ccccc3)C[C@H]4C)n2)CC1 (stereo partly drawn) [Compound I-7] | 64 | 49 | 5
5 | C[C@@H]1Cc2nn(C)c(-c3ccccc3)c2-c2nc(Nc3ccn(CCN4CCN(CC(=O)OC5CCOCC5)CC4)n3)ncc21 [Compound I-8] | 40 | 46 | 6
6 | C[C@@H]1Cc2nn(C)c(-c3ccccc3)c2-c2nc(Nc3ccn(CCN4CCN(CC5CCCO5)CC4)n3)ncc21 (stereo partly drawn) [Compound I-9] | 69 | 57 | 10
7 | COCCN1CCN(CCn2ccc(Nc3ncc4c(n3)-c3c(nn(C)c3-c3ccccc3)C[C@H]4C)n2)CC1 [Compound I-11] | 38 | 33 | -12

Source: patent US10414769B2, “5,8-dimethyl-9-phenyl-5,8-dihydro-6H-pyrazolo[3,4-h]quinazolin-2-yl)-(1H-pyrazol-3-yl)-amines as IGF-1R/IR inhibitors” (Boehringer Ingelheim International GmbH, priority 2015, dated 2019)
